Columns and labels:
[1] = Resistance fold, ratio of EC50 for HIV1 harboring reverse transcriptase E138K mutant […] to EC50 for wild type HIV1 […]; type: functional
[2] = tested on: Human immunodeficiency virus 2; assay: Anti-HIV activity against HIV2 ROD infected in human MT4 cells assessed as reduction in virus-induced cytopathic effect incubated for 5 days by MTT assay; type: functional, organism-based; details: Human immunodeficiency virus 2, ROD, MT4, 120 h
[3] = tested on: Human immunodeficiency virus 1; assay: Antiviral activity against HIV1 harboring reverse transcriptase K103N mutant infected in human MT4 cells assessed as protection against virus-induced cytopathic effect incubated for 5 days by MTT assay; type: functional, organism-based; details: Human immunodeficiency virus 1, MT4, 120 h
[4] = Resistance fold, ratio of EC50 for HIV1 harboring reverse transcriptase K103N mutant […] to EC50 for wild type HIV1 […]; type: functional
[5] = tested on: Human immunodeficiency virus 1; assay: Antiviral activity against HIV1 harboring reverse transcriptase E138K mutant infected in human MT4 cells assessed as protection against virus-induced cytopathic effect incubated for 5 days by MTT assay; type: functional, organism-based; details: Human immunodeficiency virus 1, MT4, 120 h
[6] = Selectivity index, ratio of CC50 for cytotoxicity against human MT4 cells to EC50 of Anti-HIV activity against HIV-1 IIIB infected in human MT4; type: toxicity, cell-based; details: read-out: Selectivity Index
[7] = Cytotoxicity against human MT4 cells assessed as reduction in cell viability incubated for 5 days by MTT assay; type: cell-based; details: human, MT4 cells; time 5 day
[8] = target: Human immunodeficiency virus type 1 reverse transcriptase (Human immunodeficiency virus 1, UniProt Q72547); assay: Inhibition of wild type HIV1 reverse transcriptase using oligo(dT)16 as primer measured after 40 mins by picogreen-dye based spectrofluorimetric analysis
[9] = Resistance fold, ratio of EC50 for HIV1 harboring reverse transcriptase Y181C mutant […] to EC50 for wild type HIV1 […]; type: functional
[10] = Resistance fold, ratio of EC50 for HIV1 harboring reverse transcriptase K103N/Y181C double mutant […] to EC50 for wild type HIV1 […]; type: functional
[11] = tested on: Human immunodeficiency virus 1; assay: Antiviral activity against HIV1 harboring reverse transcriptase K103N/Y181C double mutant infected in human MT4 cells assessed as protection against virus-induced cytopathic effect incubated for 5 days by MTT assay; type: functional, organism-based; details: Human immunodeficiency virus 1, MT4, 120 h
[12] = tested on: Human immunodeficiency virus 1; assay: Antiviral activity against HIV1 harboring reverse transcriptase Y181C mutant infected in human MT4 cells assessed as protection against virus-induced cytopathic effect incubated for 5 days by MTT assay; type: functional, organism-based; details: Human immunodeficiency virus 1, MT4, 120 h
[13] = tested on: Human immunodeficiency virus 1; assay: Antiviral activity against HIV1 harboring reverse transcriptase Y188L mutant infected in human MT4 cells assessed as protection against virus-induced cytopathic effect incubated for 5 days by MTT assay; type: functional, organism-based; details: Human immunodeficiency virus 1, MT4, 120 h
[14] = tested on: Human immunodeficiency virus 1; assay: Anti-HIV activity against HIV-1 IIIB infected in human MT4 cells assessed as reduction in virus-induced cytopathic effect incubated for 5 days by MTT assay; type: functional, organism-based; details: Human immunodeficiency virus 1, IIIB, MT4, 120 h
[15] = tested on: Human immunodeficiency virus 1; assay: Antiviral activity against HIV1 harboring reverse transcriptase F227L/V106A mutant infected in human MT4 cells assessed as protection against virus-induced cytopathic effect incubated for 5 days by MTT assay; type: functional, organism-based; details: Human immunodeficiency virus 1, MT4, 120 h
[16] = tested on: Human immunodeficiency virus 1; assay: Antiviral activity against HIV1 harboring reverse transcriptase L100I mutant infected in human MT4 cells assessed as protection against virus-induced cytopathic effect incubated for 5 days by MTT assay; type: functional, organism-based; details: Human immunodeficiency virus 1, MT4, 120 h
[17] = Resistance fold, ratio of EC50 for HIV1 harboring reverse transcriptase Y188L mutant […] to EC50 for wild type HIV1 […]; type: functional
[18] = Resistance fold, ratio of EC50 for HIV1 harboring reverse transcriptase F227L/V106A double mutant […] to EC50 for wild type HIV1 […]; type: functional
[19] = Resistance fold, ratio of EC50 for HIV1 harboring reverse transcriptase L100I mutant […] to EC50 for wild type HIV1 […]; type: functional

SMILES: COc1cc2cc(C#N)ccc2c(OC)c1Oc1cc(NC(C)C)nc(Nc2ccc(C#N)cc2)n1
- Ratio EC50 [1]: 2
- EC50 [2]: > 1000 µM
- EC50 [3]: 0.47 µM
- Ratio EC50 [4]: 19
- EC50 [5]: 0.047 µM
- selectivity ratio [6]: > 10400
- CC50 at 120 h [7]: > 125 µM
- IC50 [8]: 0.14 µM

SMILES: COc1cc2cc(C#N)ccc2c(OC)c1Oc1cc(NCC2CC2)nc(Nc2ccc(C#N)cc2)n1
- Ratio EC50 [9]: 9
- Ratio EC50 [1]: 5
- EC50 [2]: 213 µM
- Ratio EC50 [10]: 56
- EC50 [3]: 0.031 µM
- EC50 [11]: 1.37 µM
- IC50 [12]: 0.21 µM
- EC50 [13]: 1.42 µM
- Ratio EC50 [4]: 1
- EC50 [5]: 0.059 µM
- selectivity ratio [6]: > 10500
- CC50 at 120 h [7]: > 125 µM
- IC50 [8]: 0.09 µM
- EC50 [14]: 0.025 µM
- EC50 [15]: 74.4 µM
- EC50 [16]: 0.96 µM
- Ratio EC50 [17]: 58
- Ratio EC50 [18]: 3026
- Ratio EC50 [19]: 39

SMILES: CCCCNc1cc(Oc2c(OC)cc3cc(C#N)ccc3c2OC)nc(Nc2ccc(C#N)cc2)n1
- Ratio EC50 [1]: 2
- EC50 [2]: > 1000 µM
- Ratio EC50 [10]: 58
- EC50 [3]: 0.031 µM
- EC50 [11]: 1.52 µM
- EC50 [13]: 3.12 µM
- Ratio EC50 [4]: 1
- EC50 [5]: 0.064 µM
- selectivity ratio [6]: > 9600
- CC50 at 120 h [7]: > 125 µM
- IC50 [8]: 0.17 µM
- EC50 [15]: > 1000 µM
- EC50 [16]: 0.63 µM
- Ratio EC50 [17]: 119
- Ratio EC50 [18]: >38461
- Ratio EC50 [19]: 24

SMILES: COc1cc2cc(C#N)ccc2c(OC)c1Oc1cc(NCCCCO)nc(Nc2ccc(C#N)cc2)n1
- Ratio EC50 [9]: 11
- Ratio EC50 [1]: 3
- EC50 [2]: 4.93 µM
- Ratio EC50 [10]: 31
- EC50 [3]: 0.02 µM
- EC50 [11]: 0.55 µM
- EC50 [12]: 0.19 µM
- EC50 [13]: 0.74 µM
- Ratio EC50 [4]: 1
- EC50 [5]: 0.047 µM
- selectivity ratio [6]: 2190
- CC50 at 120 h [7]: 39.1 µM
- IC50 [8]: 0.08 µM
- EC50 [14]: 0.018 µM
- EC50 [15]: 2.81 µM
- EC50 [16]: 0.3 µM
- Ratio EC50 [17]: 41
- Ratio EC50 [18]: 158
- Ratio EC50 [19]: 17

SMILES: COc1cc2cc(C#N)ccc2c(OC)c1Oc1cc(NCC2CCOCC2)nc(Nc2ccc(C#N)cc2)n1
- Ratio EC50 [9]: 2
- Ratio EC50 [1]: 4
- EC50 [2]: > 1000 µM
- Ratio EC50 [10]: 11
- EC50 [3]: 0.016 µM
- EC50 [11]: 0.24 µM
- EC50 [12]: 0.053 µM
- EC50 [13]: 0.37 µM
- Ratio EC50 [4]: 2
- EC50 [5]: 0.064 µM
- selectivity ratio [6]: > 10700
- CC50 at 120 h [7]: > 125 µM
- IC50 [8]: 0.2 µM
- EC50 [14]: 0.022 µM
- EC50 [15]: 2.48 µM
- EC50 [16]: 0.15 µM
- Ratio EC50 [17]: 17
- Ratio EC50 [18]: 113

SMILES: Nc1ccn([C@@H]2CS[C@H](CO)O2)c(=O)n1 [LAMIVUDINE]
- Ratio EC50 [9]: 1
- Ratio EC50 [1]: 1
- Ratio EC50 [10]: 1
- EC50 [11]: 6.01 µM
- EC50 [12]: 4.57 µM
- Ratio EC50 [4]: 1
- EC50 [5]: 8.49 µM
- selectivity ratio [6]: > 15
- CC50 at 120 h [7]: > 20 µM
- EC50 [14]: 5.76 µM
- EC50 [15]: 3.07 µM
- EC50 [16]: 2.13 µM
- Ratio EC50 [17]: 0
- Ratio EC50 [18]: 1
- Ratio EC50 [19]: 0.4

SMILES: COc1cc2cc(C#N)ccc2c(OC)c1Oc1cc(NCCCO)nc(Nc2ccc(C#N)cc2)n1
- Ratio EC50 [9]: 8
- Ratio EC50 [1]: 4
- EC50 [2]: 4.1 µM
- Ratio EC50 [10]: 16
- EC50 [3]: 0.012 µM
- EC50 [11]: 0.23 µM
- EC50 [12]: 0.11 µM
- EC50 [13]: 0.44 µM
- Ratio EC50 [4]: 1
- EC50 [5]: 0.055 µM
- selectivity ratio [6]: > 1630
- CC50 at 120 h [7]: 23.5 µM
- IC50 [8]: 0.19 µM
- EC50 [14]: 0.014 µM
- EC50 [15]: 1.63 µM
- EC50 [16]: 0.31 µM
- Ratio EC50 [17]: 31
- Ratio EC50 [18]: 113

Source: ChEMBL document CHEMBL5036347, “Design of the naphthyl-diarylpyrimidines as potent non-nucleoside reverse transcriptase inhibitors (NNRTIs) via structure-based extension into the entrance channel” (Eur J Med Chem, 2021)
